Measured values published in patent US8846933B2, “N-link hydroxamic acid derivatives useful as antibacterial agents” (Pfizer Inc., priority 2009, dated 2014).

Experiments:
[1] = tested on: Escherichia coli EC-1: VOGEL, mouse virulent; experiment: MIC determination (CLSI), strain EC-1; assay type: cell-based; settings: strain EC-1; unit assumed
Procedure, shortened: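 The mouse-virulent VOGEL isolate of E. coli, EC-1, served as test organism. Minimum inhibitory concentration was measured by CLSI dilution methodology (M7-A7; M100-S18 standards).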

[2] = tested on: Pseudomonas aeruginosa UI-18: Wild-type (PA-7); experiment: MIC determination (CLSI), strain PA-7; assay type: cell-based; settings: strain PA-7; unit assumed
Procedure, shortened: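 Strain tested was P. aeruginosa UI-18, a wild-type isolate labelled PA-7. Minimum inhibitory concentrations followed CLSI dilution methodology for aerobically growing bacteria (M7-A7, M100-S18).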

Row | Structure (SMILES) | EC-1 (MIC) [1] [µg/mL] | PA-7 (MIC) [2] [µg/mL]
1 | C[C@@](CCn1ccc(-c2ccc(F)cc2F)cc1=O)(C(=O)NO)S(C)(=O)=O [Example 321, (2R)-4-[4-(2,4-difluorophenyl)-2-oxopyridin-1(2H)-yl]-N-hydroxy-2-methyl-2-(methylsulfonyl)butanamide] | 1 | 1
2 | Cc1ccc(-c2ccn(CC[C@](C)(C(=O)NO)S(C)(=O)=O)c(=O)c2)cc1F [Example 322, (2R)-4-[4-(3-fluoro-4-methylphenyl)-2-oxopyridin-1(2H)-yl]-N-hydroxy-2-methyl-2-(methylsulfonyl)butanamide] | 0.5 | 0.5
3 | Cc1cccc(-c2ccn(CC[C@](C)(C(=O)NO)S(C)(=O)=O)c(=O)c2)c1F [Example 323, (2R)-4-[4-(2-fluoro-3-methylphenyl)-2-oxopyridin-1(2H)-yl]-N-hydroxy-2-methyl-2-(methylsulfonyl)butanamide] | 0.25 | 0.5
4 | Cc1c(OCCCCO)ccc(-c2ccn(CC[C@](C)(C(=O)NO)S(C)(=O)=O)c(=O)c2)c1F [Example 324] | 0.25 | 2
5 | Cc1cc(-c2ccn(CC[C@](C)(C(=O)NO)S(C)(=O)=O)c(=O)c2)ccc1F [Example 325, (2R)-4-[4-(4-fluoro-3-methylphenyl)-2-oxopyridin-1(2H)-yl]-N-hydroxy-2-methyl-2-(methylsulfonyl)butanamide] | 0.5 | 0.5
6 | CC1(O)CCC(Oc2ccc(-c3ccn(CC[C@](C)(C(=O)NO)S(C)(=O)=O)c(=O)c3)c(F)c2)CC1 (stereo partly drawn) [Example 326, (2R)-4-[4-{2-fluoro-4-[(4-hydroxy-4-methylcyclohexyl)oxy]phenyl}-2-oxopyridin-1(2H)-yl]-N-hydroxy-2-methyl-2-(methylsulfonyl)butanamide] | 0.5 | 4
7 | C[C@@](CCn1ccc(-c2ccc3[nH]c(=O)ccc3c2)cc1=O)(C(=O)NO)S(C)(=O)=O [Example 327, (2R)-N-hydroxy-2-methyl-2-(methylsulfonyl)-4-[2-oxo-4-(2-oxo-1,2-dihydroquinolin-6-yl)pyridin-1(2H)-yl]butanamide] | 4 | > 64
8 | COc1ccc2cc(-c3ccn(CC[C@](C)(C(=O)NO)S(C)(=O)=O)c(=O)c3)ccc2n1 [Example 328, (2R)-N-hydroxy-4-[4-(2-methoxyquinolin-6-yl)-2-oxopyridin-1(2H)-yl]-2-methyl-2-(methylsulfonyl)butanamide] | 1 | 1
9 | C[C@@](CCn1ccc(-c2ccc(N3CCC(O)CC3)cc2)cc1=O)(C(=O)NO)S(C)(=O)=O [Example 329, (2R)-N-hydroxy-4-{4-[4-(4-hydroxypiperidin-1-yl)phenyl]-2-oxopyridin-1(2H)-yl}-2-methyl-2-(methylsulfonyl)butanamide] | 1 | 4
10 | C[C@@](CCn1ccc(-c2ccc3c(c2)OCCCO3)cc1=O)(C(=O)NO)S(C)(=O)=O [Example 330, (2R)-4-[4-(3,4-dihydro-2H-1,5-benzodioxepin-7-yl)-2-oxopyridin-1(2H)-yl]-N-hydroxy-2-methyl-2-(methylsulfonyl)butanamide] | 0.5 | 4
11 | C[C@@](CCn1ccc(-c2ccc(C(F)(F)F)nc2)cc1=O)(C(=O)NO)S(C)(=O)=O [Example 331] | 0.25 | 32
12 | CCOc1ccc(-c2ccn(CC[C@](C)(C(=O)NO)S(C)(=O)=O)c(=O)c2)cc1 [Example 332, (2R)-4-[4-(4-ethoxyphenyl)-2-oxopyridin-1(2H)-yl]-N-hydroxy-2-methyl-2-(methylsulfonyl)butanamide] | 64 | 0.5
13 | C[C@@](CCn1ccc(-c2ccc(OCC#N)cc2)cc1=O)(C(=O)NO)S(C)(=O)=O [Example 333, (2R)-4-{4-[4-(cyanomethoxy)phenyl]-2-oxopyridin-1(2H)-yl}-N-hydroxy-2-methyl-2-(methylsulfonyl)butanamide] | 16 | 8
14 | COc1ccc(-c2ccn(CC[C@](C)(C(=O)NO)S(C)(=O)=O)c(=O)c2)cc1Cl [Example 334, (2R)-4-[4-(3-chloro-4-methoxyphenyl)-2-oxopyridin-1(2H)-yl]-N-hydroxy-2-methyl-2-(methylsulfonyl)butanamide] | 8 | 1
15 | C[C@@](CCn1ccc(-c2cc(F)cc(F)c2)cc1=O)(C(=O)NO)S(C)(=O)=O [Example 335, (2R)-4-[4-(3,5-difluorophenyl)-2-oxopyridin-1(2H)-yl]-N-hydroxy-2-methyl-2-(methylsulfonyl)butanamide] | 1 | 2
16 | C[C@@](CCn1ccc(-c2cc(Cl)cc(Cl)c2)cc1=O)(C(=O)NO)S(C)(=O)=O [Example 336, (2R)-4-[4-(3,5-dichlorophenyl)-2-oxopyridin-1(2H)-yl]-N-hydroxy-2-methyl-2-(methylsulfonyl)butanamide] | 4 | 8
17 | C[C@@](CCn1ccc(-c2ccc(OC3CCNCC3)c(F)c2)cc1=O)(C(=O)NO)S(C)(=O)=O [Example 337, (2R)-4-{4-[3-fluoro-4-(piperidin-4-yloxy)phenyl]-2-oxopyridin-1(2H)-yl}-N-hydroxy-2-methyl-2-(methylsulfonyl)butanamide] | > 64 | > 64
18 | C[C@@](CCn1ccc(-c2ccc(OC(F)F)cc2)cc1=O)(C(=O)NO)S(C)(=O)=O [Example 338, (2R)-4-{4-[4-(difluoromethoxy)phenyl]-2-oxopyridin-1(2H)-yl}-N-hydroxy-2-methyl-2-(methylsulfonyl)butanamide] | 0.5 | 0.5
19 | C[C@@](CCn1ccc(-c2ccc3c(c2)CCC3=O)cc1=O)(C(=O)NO)S(C)(=O)=O [Example 339, (2R)-N-hydroxy-2-methyl-2-(methylsulfonyl)-4-[2-oxo-4-(1-oxo-2,3-dihydro-1H-inden-5-yl)pyridin-1(2H)-yl]butanamide] | 4 | 4
20 | C[C@@](CCn1ccc(-c2ccc(-c3cnco3)cc2)cc1=O)(C(=O)NO)S(C)(=O)=O [Example 340, (2R)-N-hydroxy-2-methyl-2-(methylsulfonyl)-4-{4-[4-(1,3-oxazol-5-yl)phenyl]-2-oxopyridin-1(2H)-yl}butanamide] | 0.25 | 1
21 | C[C@@](CCn1ccc(-c2ccccc2Cl)cc1=O)(C(=O)NO)S(C)(=O)=O [Example 341, (2R)-4-[4-(2-chlorophenyl)-2-oxopyridin-1(2H)-yl]-N-hydroxy-2-methyl-2-(methylsulfonyl)butanamide] | 4 | 2
22 | COc1ccc(-c2ccn(CC[C@](C)(C(=O)NO)S(C)(=O)=O)c(=O)c2)c(Cl)c1 [Example 342, (2R)-4-[4-(2-chloro-4-methoxyphenyl)-2-oxopyridin-1(2H)-yl]-N-hydroxy-2-methyl-2-(methylsulfonyl)butanamide] | 0.5 | 0.5
23 | CC(C)(C#N)Cc1ccc(-c2ccn(CC[C@](C)(C(=O)NO)S(C)(=O)=O)c(=O)c2)cc1 [Example 343, (2R)-4-{4-[4-(2-cyano-2-methylpropyl)phenyl]-2-oxopyridin-1(2H)-yl}-N-hydroxy-2-methyl-2-(methylsulfonyl)butanamide] | 8 | 2
24 | C[C@@](CCn1ccc(-c2ccc(CCCO)c(F)c2)cc1=O)(C(=O)NO)S(C)(=O)=O [Example 344, (2R)-4-{4-[3-fluoro-4-(3-hydroxypropyl)phenyl]-2-oxopyridin-1(2H)-yl}-N-hydroxy-2-methyl-2-(methylsulfonyl)butanamide] | 4 | 2
25 | COc1ccc(-c2ccn(CC[C@](C)(C(=O)NO)S(C)(=O)=O)c(=O)c2)c(C)c1 [Example 345, (2R)-N-hydroxy-4-[4-(4-methoxy-2-methylphenyl)-2-oxopyridin-1(2H)-yl]-2-methyl-2-(methylsulfonyl)butanamide] | 4 | 4
26 | COc1ccc(-c2ccn(CC[C@](C)(C(=O)NO)S(C)(=O)=O)c(=O)c2)cc1C [Example 346, (2R)-N-hydroxy-4-[4-(4-methoxy-3-methylphenyl)-2-oxopyridin-1(2H)-yl]-2-methyl-2-(methylsulfonyl)butanamide] | 0.5 | 0.5
27 | C[C@@](CCn1ccc(-c2ccc(CCC#N)cc2)cc1=O)(C(=O)NO)S(C)(=O)=O [Example 347, (2R)-4-{4-[4-(2-cyanoethyl)phenyl]-2-oxopyridin-1(2H)-yl}-N-hydroxy-2-methyl-2-(methylsulfonyl)butanamide] | 64 | 4
28 | C[C@@](CCn1ccc(-c2ccc(OC[C@H]3CC[C@@H](O)CC3)c(F)c2)cc1=O)(C(=O)NO)S(C)(=O)=O [Example 348, (2R)-4-[4-{3-fluoro-4-[(cis-4-hydroxycyclohexyl)methoxy]phenyl}-2-oxopyridin-1(2H)-yl]-N-hydroxy-2-methyl-2-(methylsulfonyl)butanamide] | 0.25 | 1
29 | CC1(O)CCC(Oc2ccc(-c3ccn(CC[C@](C)(C(=O)NO)S(C)(=O)=O)c(=O)c3)cc2F)CC1 (stereo partly drawn) [Example 349, (2R)-4-[4-{3-fluoro-4-[(4-hydroxy-4-methylcyclohexyl)oxy]phenyl}-2-oxopyridin-1(2H)-yl]-N-hydroxy-2-methyl-2-(methylsulfonyl)butanamide] | 0.5 | 4
30 | CC(C)(CO)c1ccc(-c2ccn(CC[C@](C)(C(=O)NO)S(C)(=O)=O)c(=O)c2)cc1 [Example 350, (2R)-N-hydroxy-4-{4-[4-(2-hydroxy-1,1-dimethylethyl)phenyl]-2-oxopyridin-1(2H)-yl}-2-methyl-2-(methylsulfonyl)butanamide] | 16 | 16
